# From patent publication US5010074A, “Novel benzazepine derivatives” (Novo Nordisk A/S, priority 1988, dated 1991)
# Like-named read-outs stand apart in the source and are kept apart here.
# Experiments:
# dopamine D1 receptor = biological target: T1, dopamine D1 receptor (Rattus norvegicus, UniProt P18901); assay: binding to dopamine D1 receptor in homogenates from rat striatum
# T1 construct: homogenates from rat striatum; from tissue; host or cells: rat striatum homogenate
# From the text: Ki is the affinity of tested compounds for the dopamine D1 receptor.
# [1] = tested on: methyl-phenidate-induced gnawing behaviour of mice; assay: antagonism of methylphenidate-induced stereotyped gnawing in mice; conditions: Mus musculus
# From the text: (§1) Following the method of Pedersen, V. and Christensen, A.V.: "Antagonism of methylphenidate-induced stereotyped gnawing in mice", Acta Pharmacol. et Toxicol. 31: 488-496, 1972, antagonism of dopamine-dependent, methyl-phenidate-induced gnawing behaviour of mice, was used to assess the effects of the present D-1 antagonists. Further, the ratio of ED50 values obtained using i.v. administration and oral administration, respectively, was taken as an index of the bioavailability of the test drugs.
# in vivo [2] = conditions: mouse, in vivo
# From the text: as §1
# in vivo [3] = assay: in vivo; parameters: species or system mongrel dogs; conditions: dog, po
# Procedure: As already mentioned, the benzazepines of the general formula given in Table II with X representing halogen have a low oral bioavailability. […] Some test results are stated in the following.
# The benzazepines are administered orally to dogs and subsequently samples of their blood plasma are analysed for the compound by a specific HPLC-method. The area under the curve showing the oral plasma concentration versus time is calculated. This area is designated […].
# The absolute oral bioavailability, F, is calculated as the ratio between the area representing the oral dose and the area for the intravenous dose according to the formula [formula]
# [4] = in words; Life Sci. 34 (1984) 1529; cited from earlier work
# D1 dopamine = conditions: in words; Eur.J.Pharmacol. 91 (1983) 153; cited from earlier work
# [5] = Table I, rat striatum homogenates, (+) enantiomere or racemic mixtures, read-out: Ki Dopamine D1 receptor
# [6] = Table II, unit inferred, read-out: Ki
# T1 sequence (P18901 whole entry): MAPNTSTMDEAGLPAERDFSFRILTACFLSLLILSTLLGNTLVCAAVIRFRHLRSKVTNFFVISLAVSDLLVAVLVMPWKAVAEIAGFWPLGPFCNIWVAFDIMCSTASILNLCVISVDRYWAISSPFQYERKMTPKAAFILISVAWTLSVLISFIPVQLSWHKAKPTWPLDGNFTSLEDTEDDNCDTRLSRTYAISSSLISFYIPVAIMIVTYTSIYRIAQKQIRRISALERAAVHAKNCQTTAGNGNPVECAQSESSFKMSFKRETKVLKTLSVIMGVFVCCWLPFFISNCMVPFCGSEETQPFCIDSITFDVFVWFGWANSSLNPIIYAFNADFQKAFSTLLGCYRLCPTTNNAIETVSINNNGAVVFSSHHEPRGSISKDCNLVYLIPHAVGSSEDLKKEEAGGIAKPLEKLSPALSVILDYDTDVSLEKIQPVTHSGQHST
SMILES,Ki (dopamine D1 receptor; [5]) [nM],Ki (dopamine D1 receptor; [6]) [nM],"ED50 ([1]; iv, read-out: ED50 i.v.) [mg/kg]","ED50 ([1]; po, read-out: ED50 p.o.) [mg/kg]",selectivity ratio (in vivo [2]),also measured
"CN1CCc2cc([N+](=O)[O-])c(O)cc2C(c2cccc3c2OCC3)C1 (single isomer, unassigned; (+)) [Example 5, (+)-5-(2,3-dihydrobenzofuran-7-yl)-7-hydroxy-3-methyl-8-nitro-2,3,4,5-tetrahydro-1H-3-benzazepine]",11,4.6,0.11,1.9,17.3,bioavailability (in vivo [3]): 65%
"CN1CCc2cc([N+](=O)[O-])c(O)cc2[C@@H]2c3ccccc3CC[C@H]21 (relative stereo) [Example 7, trans-[6,7,7a,8,9,13b]-hexahydro-2-hydroxy-7-methyl-3-nitro-5H-benzo[d]naphto[2,1-b]azepine]",169,,,,,
"CN1CCc2cc(Cl)c(O)cc2C(c2cccc3c2OCC3)C1 (stereo not shown) [8-chloro-7-hydroxy-3-methyl-5-(2,3-dihydrobenzofuran-7-yl)-2,3,4,5-tetrahydro-1H-3-benzazepine, reference compound]",,0.2,0.06,4.5,75,bioavailability (in vivo [3]): 5.5%
"CN1CCc2cc([N+](=O)[O-])c(O)cc2C(c2ccccc2F)C1 (stereo not shown) [Example 1, 5-(2-fluorophenyl)-7-hydroxy-3-methyl-8-nitro-2,3,4,5-tetrahydro-1H-3-benzazepine]",42,,,,,
"Cc1ccccc1C1CN(C)CCc2cc([N+](=O)[O-])c(O)cc21 (stereo not shown) [Example 3, 7-hydroxy-3-methyl-8-nitro-5(2-methyl-phenyl)-2,3,4 5-tetrahydro-1H-3-benzazepine]",28,,,,,
"CN1CCc2cc([N+](=O)[O-])c(O)cc2[C@@H](c2ccccc2)C1 [Example 4, (R)-7-hydroxy-3-methyl-8-nitro-5-phenyl-2,3,4,5-tetrahydro-1H-3-benzazepine]",13,13,5.4,11.9,2.2,
"CN1CCc2cc([N+](=O)[O-])c(O)cc2C(c2ccc3c(c2)CCC3)C1 (stereo not shown) [Example 6, 7-hydroxy-5-(5-indanyl)-3-methyl-8-nitro-2,3,4,5-tetrahydro-1H-3-benzazepine]",88,,,,,
"CN1CCc2cc(Cl)c(O)cc2[C@@H](c2ccccc2)C1 [SCH 23390, (R)-8-chloro-7-hydroxy-2,3,4,5-tetrahydro-3-methyl-5-phenyl-1H-3-benzazepine]",,,0.017,6.5,,bioavailability after oral administration [4]: poor bioavailability after oral administration; duration of action [4]: short duration of action; D1 dopamine antagonism (D1 dopamine): selective D1 dopamine antagonist
